Some test systems named below: CAKI-1; COLO 205; EKVX; HCC 2998; HCT-15; MDA-MB-231; MDA-MB-435; NCI-H226; NCI-H460; NCI/ADR-RES; SK-MEL-5; SN12C; TK-10; UO-31; A498; SF-539; SK-MEL-28; SR.
Holding throughout (test): NCI anticancer screen, dose series, 48 h

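Compound exposure: 48 hours, 5 concentrations, 96-well plates. GI50 marks 50% less growth.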 The source made the active and inactive calls. Rule as the data show it: active = GI50 up to about 1.1 µM and inactive = higher.

Regarding `COC1=CC2C(c3cc4ccccc4n3S(=O)(=O)c3ccccc3)CC1CN2C(=O)OCc1ccccc1` (centres undefined), the GI50 in the assay with CAKI-1 is 35.2 µM (inactive); in the assay with COLO 205 it was 16.4 µM (inactive); with EKVX, 18.9 µM (inactive); in the assay with HCC 2998, 36.5 µM (inactive); with HCT-15, 31.1 µM; in the assay on MDA-MB-231, 20 µM (inactive). Besides, the GI50 is 24.2 µM (inactive) in the assay on MDA-MB-435; 27.4 µM (inactive) in the assay on NCI-H226; 29.5 µM (inactive) with NCI-H460; 35.7 µM (inactive) in the assay on NCI/ADR-RES; 25.6 µM (inactive) in the assay on SK-MEL-5; 32 µM (inactive) in the assay with SN12C. Also, the GI50 in the assay with TK-10 was 67.1 µM (inactive); with UO-31, 27.2 µM (inactive).
As for `CS(=O)(=O)N(CCC#N)c1ccc(C=O)cc1`, the GI50 in the assay with A498 is > 100 µM (inactive); in the assay on CAKI-1 it was > 100 µM (inactive); in the assay with EKVX, > 100 µM (inactive); in the assay with HCC 2998 it was > 100 µM (inactive); in the assay with HCT-15, more than 100 µM; in the assay on NCI-H226, > 100 µM (inactive). Also, the GI50 with NCI-H460, with SF-539, in the assay with SK-MEL-28, in the assay with SK-MEL-5, in the assay on SN12C and in the assay with SR was > 100 µM (inactive) each time. Moreover, the GI50 in the assay with UO-31 is > 100 µM (inactive).
On to `Cc1nc(C(N)=O)c(N)n1CCN1CCN(C(=O)CCCCCCCCCCNC2NC=Nc3[nH]cnc32)CC1` (centres undefined), for which the GI50 in the assay with A498 is > 100 µM (inactive); in the assay on CAKI-1, > 10 µM (inactive); in the assay with COLO 205, 73.5 µM (inactive); in the assay with HCC 2998, > 100 µM (inactive); with HCT-15, more than 100 µM; with NCI-H460, 32.7 µM (inactive). Moreover, the GI50 with SF-539 is > 100 µM (inactive); in the assay on SK-MEL-28, 22 µM (inactive); in the assay with SN12C, 80.7 µM (inactive); in the assay on SR, 13.6 µM (inactive); with TK-10 it was 90.2 µM (inactive); in the assay on UO-31, > 100 µM (inactive).
In the case of `COc1cc2c(c(OC)c1OC)C(=O)CC2N` (centres undefined), the GI50 in the assay with A498 is > 100 µM (inactive); in the assay with CAKI-1 it was > 100 µM (inactive); in the assay with COLO 205, > 100 µM (inactive); with EKVX, > 100 µM (inactive); in the assay with HCC 2998 it was > 100 µM (inactive); with HCT-15, more than 100 µM. Besides, the GI50 in the assay with MDA-MB-231, with MDA-MB-435, with NCI-H226, in the assay on NCI-H460, with NCI/ADR-RES and with SF-539 was > 100 µM (inactive) each time. The GI50 with SK-MEL-28, in the assay with SK-MEL-5, in the assay with TK-10 and in the assay on UO-31 was > 100 µM (inactive) throughout.
Turning to `Cc1c(N2CCN(C)CC2)nc2ccc(Cl)cc2c1-c1ccccc1`, the GI50 with A498 is 12.2 µM (inactive); in the assay with CAKI-1, 17.3 µM (inactive); in the assay with COLO 205, 16.1 µM (inactive); with EKVX, 17.7 µM (inactive); with HCC 2998, > 10 µM (inactive); in the assay with HCT-15, 18.9 µM. Moreover, the GI50 is 17.5 µM (inactive) in the assay with NCI-H460; 17.6 µM (inactive) in the assay on SF-539; 18 µM (inactive) with SK-MEL-28; 15.4 µM (inactive) in the assay on SK-MEL-5; 14.7 µM (inactive) with SN12C; 17.9 µM (inactive) in the assay on SR. Besides, the GI50 was > 10 µM (inactive) with TK-10 and 16.5 µM (inactive) in the assay with UO-31.
